Some test systems named below: COLO 205 colon; HCT-15 colon; HL-60(TB) leukemia; LOX IMVI melanoma; OVCAR-3 ovarian; SF-539 CNS; SK-MEL-2 melanoma; SK-MEL-28 melanoma; SNB-75 CNS; SR leukemia.
Experiment in all cases: NCI anticancer screen, dose series, 48 h

SMILES strings stand for the structures.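 Following 48 hours of exposure in 96-well plates, responses at five concentrations were used to interpolate endpoints linearly. GI50 marks 50% less growth. TGI is the concentration that stops growth completely.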 Bounds are passed on as bounds.

As for `COC(=O)c1cccc2cccc(C(=O)Nc3ccc(Cl)cc3)c12`, the TGI in the assay on COLO 205 colon is more than 62.3 µM; in the assay with HCT-15 colon, more than 53.1 µM; with HL-60(TB) leukemia it was 22.1 µM; in the assay with LOX IMVI melanoma it was more than 100 µM; in the assay with OVCAR-3 ovarian, more than 100 µM; in the assay with SF-539 CNS it was more than 100 µM. Further, the TGI with SK-MEL-2 melanoma was more than 100 µM; with SK-MEL-28 melanoma it was more than 100 µM; in the assay on SNB-75 CNS, more than 100 µM; in the assay with SR leukemia, 50.8 µM.

With `OCC(O)CNc1ccnc2cc(Cl)ccc12` (stereo not drawn), the TGI with COLO 205 colon, in the assay with HCT-15 colon, in the assay on HL-60(TB) leukemia, in the assay with LOX IMVI melanoma, in the assay on OVCAR-3 ovarian and in the assay on SF-539 CNS was more than 100 µM each time. Moreover, the TGI in the assay with SK-MEL-2 melanoma, with SK-MEL-28 melanoma, in the assay with SNB-75 CNS and in the assay with SR leukemia was more than 100 µM throughout.

On to `O=C(NCc1ccc(S(=O)(=O)c2cc(F)cc(F)c2)cc1)c1ccc2nccn2c1`, for which the TGI in the assay on COLO 205 colon was more than 100 µM; in the assay with HCT-15 colon it was more than 100 µM; with HL-60(TB) leukemia it was more than 100 µM; in the assay on LOX IMVI melanoma, more than 66.8 µM; in the assay on OVCAR-3 ovarian, more than 100 µM; with SF-539 CNS, more than 42.9 µM. Moreover, the TGI in the assay on SK-MEL-2 melanoma was more than 74.9 µM; in the assay on SK-MEL-28 melanoma, 98.1 µM; in the assay with SNB-75 CNS it was 45.8 µM; in the assay on SR leukemia, more than 100 µM. Also, the GI50 was 47.2 nM in the assay on HCT-15 colon; more than 40200 nM with HL-60(TB) leukemia; more than 33700 nM in the assay on LOX IMVI melanoma; 1320 nM in the assay on OVCAR-3 ovarian; less than 10 nM in the assay with SF-539 CNS; 20.1 µM in the assay with SK-MEL-2 melanoma. For the same compound, the GI50 in the assay on SK-MEL-28 melanoma is more than 39.8 µM; with SNB-75 CNS, 15.3 µM.

`Nc1nc(N)nc(CCCc2nc(N)nc(N)n2)n1`: the TGI with COLO 205 colon, in the assay with HCT-15 colon, in the assay on HL-60(TB) leukemia, in the assay on LOX IMVI melanoma, with OVCAR-3 ovarian and in the assay on SF-539 CNS was more than 100 µM each time. Besides, the TGI in the assay on SK-MEL-2 melanoma, with SK-MEL-28 melanoma, in the assay with SNB-75 CNS and with SR leukemia was more than 100 µM throughout.

Turning to `Nc1ccccc1SC1CC(=O)N(c2ccc(Cl)c(Cl)c2)C1=O` (stereo not drawn), the GI50 in the assay on COLO 205 colon is 53100 nM; with HCT-15 colon, 28600 nM; with HL-60(TB) leukemia, more than 100000 nM; in the assay on LOX IMVI melanoma, 31700 nM; with OVCAR-3 ovarian, 11600 nM; in the assay with SF-539 CNS, 63600 nM. Moreover, the GI50 with SK-MEL-2 melanoma was 26.9 µM; in the assay with SK-MEL-28 melanoma, 45.4 µM; in the assay on SNB-75 CNS, 13.3 µM; in the assay on SR leukemia it was 22400 nM. Further, the TGI is more than 100 µM in the assay with COLO 205 colon; more than 100 µM in the assay with HCT-15 colon; more than 100 µM with HL-60(TB) leukemia; more than 100 µM with LOX IMVI melanoma; 44 µM in the assay with OVCAR-3 ovarian; more than 100 µM with SF-539 CNS. Further, the TGI in the assay with SK-MEL-2 melanoma is more than 100 µM; with SK-MEL-28 melanoma, more than 100 µM; with SNB-75 CNS, 34.4 µM; in the assay on SR leukemia it was more than 100 µM.

Consider `Cc1nn(C(=O)c2ccc(Cl)cc2)c2c1C(c1ccc(O)cc1)SC(N)=N2` (stereo not drawn), for which the TGI in the assay on COLO 205 colon, in the assay with HCT-15 colon, in the assay on HL-60(TB) leukemia, in the assay with LOX IMVI melanoma, in the assay on OVCAR-3 ovarian and in the assay with SF-539 CNS was more than 10 µM throughout. Also, the TGI in the assay with SK-MEL-2 melanoma, with SK-MEL-28 melanoma, with SNB-75 CNS and in the assay with SR leukemia was more than 10 µM in each case.

For the compound `[F][Sn]([F])([c]1ccccc1)[c]1ccccc1`, the GI50 with COLO 205 colon is 1810 nM; with HCT-15 colon, 1650 nM; in the assay on HL-60(TB) leukemia it was 1010 nM; in the assay with LOX IMVI melanoma, 1700 nM; with OVCAR-3 ovarian, 1590 nM; in the assay with SF-539 CNS it was 2130 nM. Besides, the GI50 with SK-MEL-2 melanoma was 1.91 µM; in the assay with SK-MEL-28 melanoma, 1.96 µM; in the assay with SNB-75 CNS, 1.7 µM; in the assay with SR leukemia it was 1180 nM. The TGI was found to be 3.97 µM in the assay on COLO 205 colon; 3.26 µM with HCT-15 colon; 3.07 µM in the assay with HL-60(TB) leukemia; 3.29 µM in the assay on LOX IMVI melanoma; 3 µM with OVCAR-3 ovarian; 4.09 µM with SF-539 CNS. The TGI with SK-MEL-2 melanoma stood at 3.43 µM; in the assay on SK-MEL-28 melanoma it was 3.75 µM; in the assay on SNB-75 CNS, 4.61 µM; in the assay on SR leukemia it was 3.81 µM.

For `CC1=CC(=O)C(C(O)(C(F)(F)F)C(F)(F)F)C(C)(C)C1` (stereo not drawn), the TGI in the assay on COLO 205 colon, in the assay on HCT-15 colon, in the assay with HL-60(TB) leukemia, with LOX IMVI melanoma, in the assay on OVCAR-3 ovarian and with SF-539 CNS was more than 10 µM in each case. For the same compound, the TGI with SK-MEL-2 melanoma, in the assay with SK-MEL-28 melanoma, with SNB-75 CNS and in the assay with SR leukemia was more than 10 µM each time.

As for `CCOC(CN(C)C(=S)Nc1cccc2ccccc12)OCC`, the TGI in the assay on COLO 205 colon, in the assay on HCT-15 colon, with HL-60(TB) leukemia, in the assay with LOX IMVI melanoma, with OVCAR-3 ovarian and in the assay with SF-539 CNS was more than 10 µM in each case. The TGI in the assay with SK-MEL-2 melanoma, in the assay on SK-MEL-28 melanoma, in the assay on SNB-75 CNS and in the assay with SR leukemia was more than 10 µM in each case.

Turning to `COc1ccc(Cc2cnc(NC(=O)c3ccc4c(c3)OCCO4)s2)cc1`, the GI50 was 28.9 nM with COLO 205 colon; 16.7 nM in the assay with HCT-15 colon; 40.9 nM in the assay with HL-60(TB) leukemia; 45.6 nM with LOX IMVI melanoma; 22.1 nM with OVCAR-3 ovarian; 25.7 nM with SF-539 CNS. The GI50 with SK-MEL-2 melanoma is 0.0545 µM; in the assay with SK-MEL-28 melanoma, 3.75 µM; with SNB-75 CNS, 0.0192 µM; with SR leukemia, 11.4 nM. Besides, the TGI in the assay on COLO 205 colon is 0.319 µM; in the assay with HCT-15 colon it was more than 100 µM; in the assay on HL-60(TB) leukemia it was more than 100 µM; in the assay with LOX IMVI melanoma, more than 100 µM; in the assay on OVCAR-3 ovarian it was 0.0658 µM; in the assay on SF-539 CNS, 0.714 µM. The TGI was more than 78.4 µM in the assay with SK-MEL-2 melanoma, more than 83.8 µM in the assay on SK-MEL-28 melanoma, 44 µM in the assay on SNB-75 CNS and more than 100 µM with SR leukemia.

(Values after PubChem BioAssay (NCI).)
